Experiments:
Assay in all cases: Test E flooded paddy test
Settings in all cases: Flood, after 21 days, scale 0 to 100
[1] = test system: water seeded rice seedlings; assay type: in vivo, Oryza sativa cv. ‘Japonica -M202’
Text: (§1) Three plastic pots (ca. 16-cm diameter) per rate were partially filled with sterilized Tama silt loam soil comprising a 35:50:15 ratio of sand, silt and clay and 2.6% organic matter. Separate plantings for each of the three pots were as follows. Seeds from the U.S. of ducksalad (Heteranthera limosa), smallflower umbrella sedge (Cyperus difformis) and purple […] coccinea), were planted into one 16-cm pot for each rate. […] Seeds from the U.S. of barnyardgrass (Echinochloa crus-galli), late watergrass (Echinochloa oryzicola), early watergrass (Echinochloa oryzoides) and junglerice (Echinochloa colona) were planted into one 16-cm pot for each rate. Plantings were sequential so that crop and weed species were at the 2.0 to 2.5-leaf stage at time of treatment. Potted plants were grown in a greenhouse with day/night temperature settings of 30/27° C., and supplemental balanced lighting was provided to maintain a 16-hour photoperiod. Test pots were maintained in the greenhouse until test completion. At time of treatment, test pots were flooded to 3 cm above the soil surface, treated by application of test compounds directly to the paddy water, and then maintained at that water depth for the duration of the test. Effects of treatments on rice and weeds were visually evaluated by comparison to untreated controls after 21 days. […] A dash (-) response means no test result.

[2] = test system: smallflower umbrella sedge; assay type: in vivo, Cyperus difformis
Text: as §1

ducksalad = assay type: in vivo, Heteranthera limosa
Text: as §1

rice flatsedge = assay type: in vivo, Cyperus iria
Text: as §1

[3] = test system: transplanted rice seedlings; assay type: in vivo, Oryza sativa cv. ‘Japonica-M202’
Text: as §1

barnyardgrass = assay type: in vivo, Echinochloa crus-galli
Text: as §1

bearded sprangletop = assay type: in vivo, Leptochloa fascicularis
Text: as §1

junglerice = assay type: in vivo, Echinochloa colona
Text: as §1

late watergrass = assay type: in vivo, Echinochloa oryzicola
Text: as §1

purple redstem = assay type: in vivo, Ammannia coccinea
Text: as §1

early watergrass = assay type: in vivo, Echinochloa oryzoides
Text: as §1

C#CCOc1c(C[S+]([O-])c2cccc[n+]2[O-])c(C(F)(F)F)nn1C (stereo not drawn) [Compound 76]
Plant response rating, Rice, Waterseeded ([1]; 64 g ai/ha): 10
Plant response rating, Rice, Waterseeded ([1]; 125 g ai/ha): 10
Plant response rating, Rice, Waterseeded ([1]; 1000 g ai/ha): 40
Plant response rating, Sedge, Umbrella ([2]; 64 g ai/ha): 60
Plant response rating, Sedge, Umbrella ([2]; 125 g ai/ha): 90
Plant response rating, Sedge, Umbrella ([2]; 250 g ai/ha): 95
Plant response rating, Sedge, Umbrella ([2]; 500 g ai/ha): 95
Plant response rating, Sedge, Umbrella ([2]; 1000 g ai/ha): 95
Plant response rating, Ducksalad (ducksalad; 64 g ai/ha): 40
Plant response rating, Ducksalad (ducksalad; 125 g ai/ha): 40
Plant response rating, Ducksalad (ducksalad; 250 g ai/ha): 40
Plant response rating, Ducksalad (ducksalad; 500 g ai/ha): 95
Plant response rating, Ducksalad (ducksalad; 1000 g ai/ha): 95
Plant response rating, Flatsedge, Rice (rice flatsedge; 64 g ai/ha): 85
Plant response rating, Flatsedge, Rice (rice flatsedge; 125 g ai/ha): 95
Plant response rating, Flatsedge, Rice (rice flatsedge; 250 g ai/ha): 95
Plant response rating, Flatsedge, Rice (rice flatsedge; 500 g ai/ha): 100
Plant response rating, Flatsedge, Rice (rice flatsedge; 1000 g ai/ha): 100
Plant response rating, Rice, Transplanted ([3]; 64 g ai/ha): 10
Plant response rating, Rice, Transplanted ([3]; 125 g ai/ha): 10
Plant response rating, Rice, Transplanted ([3]; 1000 g ai/ha): 40
Plant response rating, Barnyardgrass (barnyardgrass; 64 g ai/ha): 0
Plant response rating, Barnyardgrass (barnyardgrass; 125 g ai/ha): 60
Plant response rating, Barnyardgrass (barnyardgrass; 250 g ai/ha): 85
Plant response rating, Barnyardgrass (barnyardgrass; 500 g ai/ha): 95
Plant response rating, Barnyardgrass (barnyardgrass; 1000 g ai/ha): 95
Plant response rating, Sprangletop, Brdd. (bearded sprangletop; 64 g ai/ha): 20
Plant response rating, Sprangletop, Brdd. (bearded sprangletop; 125 g ai/ha): 70
Plant response rating, Sprangletop, Brdd. (bearded sprangletop; 250 g ai/ha): 70
Plant response rating, Sprangletop, Brdd. (bearded sprangletop; 500 g ai/ha): 65
Plant response rating, Sprangletop, Brdd. (bearded sprangletop; 1000 g ai/ha): 65
Plant response rating, Junglerice (junglerice; 64 g ai/ha): 0
Plant response rating, Junglerice (junglerice; 125 g ai/ha): 60
Plant response rating, Junglerice (junglerice; 250 g ai/ha): 75
Plant response rating, Junglerice (junglerice; 500 g ai/ha): 100
Plant response rating, Junglerice (junglerice; 1000 g ai/ha): 100
Plant response rating, Watergrass, Late (late watergrass; 64 g ai/ha): 0
Plant response rating, Watergrass, Late (late watergrass; 125 g ai/ha): 40
Plant response rating, Watergrass, Late (late watergrass; 250 g ai/ha): 75
Plant response rating, Watergrass, Late (late watergrass; 500 g ai/ha): 95
Plant response rating, Watergrass, Late (late watergrass; 1000 g ai/ha): 95
Plant response rating, Redstem (purple redstem; 64 g ai/ha): 0
Plant response rating, Redstem (purple redstem; 125 g ai/ha): 40
Plant response rating, Redstem (purple redstem; 250 g ai/ha): 95
Plant response rating, Redstem (purple redstem; 500 g ai/ha): 100
Plant response rating, Redstem (purple redstem; 1000 g ai/ha): 100
Plant response rating, Watergrass, Early (early watergrass; 64 g ai/ha): 0
Plant response rating, Watergrass, Early (early watergrass; 125 g ai/ha): 50
Plant response rating, Watergrass, Early (early watergrass; 250 g ai/ha): 75
Plant response rating, Watergrass, Early (early watergrass; 500 g ai/ha): 100
Plant response rating, Watergrass, Early (early watergrass; 1000 g ai/ha): 100

Source: patent US20100298141A1, “SUBSTITUTED PYRIDINE N-OXIDE HERBICIDES” (E. I. DU PONT DE NEMOURS AND COMPANY, priority 2007, published 2010)
